Assay [1] has as its system LNCaP cells. Kind of assay: LNCaP cell viability assay (MTS). Format: cell-based. As to conditions: Homo sapiens, LNCaP, 48 h, LNCaP cell line. Summed up:
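LNCaP cells (5000/well) treated 24 h after plating with compound at 1–80 µM for 48 h. Relative cell number read by MTS; GI50 from four-parameter variable-slope log(inhibitor) fit with bottom constrained to zero.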

In assay [2] the test system is HCC1937 cells. The assay is described as follows: HCC1937 cell viability assay (MTS). As to conditions: Homo sapiens; HCC1937 cell line, 48 hours, MTS assay (footnote a). In kind it is cell-based. How it is done:
HCC1937 cells are plated in a 96 well plate format at a density of 10,000 cells per well. After incubation overnight, cells are treated with a compound (e.g., compound 263) at following concentrations: 80, 40, 20, 10, 5, 2.5, 1.25 μM. Compound concentrations are prepared in RPMI via serial dilutions from a starting stock of 80 mM. 48 hours after compound treatment, cell viability is assessed using the Promega CellTiter 96 aqueous one proliferation assay (Promega G3582, MTS assay) according to manufacturer's protocol.
The cell viability data was analyzed with GraphPad Prism software. The values were log transformed and analyzed with non-linear regression (curve-fit) using log(inhibitor) vs. response-variable slope (four parameters) and constraining the bottom to equal zero. Unless otherwise indicated, the GI50 values provided in Table 113 correspond to the LNCaP cell viability assays.
A general note: Tetrazolium dyes change colour on reduction, which living cells bring about.

Usually GI50 stands for the concentration at which growth is held to half of that of the control. The low end stands for greater sensitivity of the cells, the high end for lower sensitivity of the cells.

On to `CC(C)(NS(=O)(=O)c1ccc(OC(F)(F)F)cc1)C1(c2ccc(Cl)c(Cl)c2)CC1` [Compound 245, N-(2-(1-(3,4-dichlorophenyl)cyclopropyl)propan-2-yl)-4-(trifluoromethoxy)benzenesulfonamide], for which the GI50 in assay [1] was 45.2 µM.

On to `CN(C)C[C@@H](Cc1ccc(Cl)c(Cl)c1)NS(=O)(=O)c1ccc(OC(F)(F)F)cc1` [Compound 246, (R)—N-(1-(3,4-dichlorophenyl)-3-(dimethylamino)propan-2-yl)-4-(trifluoromethoxy)benzenesulfonamide], for which growth in assay [1] was halved (GI50) at 23.8 µM.

Molecule `CN(C)C[C@H](Cc1ccc(Cl)c(Cl)c1)NS(=O)(=O)c1ccc(OC(F)(F)F)cc1` [Compound 247, (S)—N-(1-(3,4-dichlorophenyl)-3-(dimethylamino)propan-2-yl)-4-(trifluoromethoxy)benzenesulfonamide] had a GI50 in assay [1] of 22.8 µM. The GI50 values of the last two molecules are within 1.5-fold of each other.

As to `CN(C)CC(NS(=O)(=O)c1ccc(OC2CCC2)cc1)c1ccc(Cl)c(Cl)c1` (stereo not drawn) [Compound 248, 4-cyclobutoxy-N-(1-(3,4-dichlorophenyl)-2-(dimethylamino)ethyl)benzenesulfonamide], the GI50 in assay [1] turned out to be 16.4 µM.

As to `CN(C)C(=O)[C@H](Cc1ccc(Cl)c(Cl)c1)NS(=O)(=O)c1ccc(OC(F)(F)F)cc1` [Compound 249, (S)-3-(3,4-dichlorophenyl)-N,N-dimethyl-2-((4-(trifluoromethoxy)phenyl)sulfonamido)propenamide], halving of growth in assay [1] (GI50) required 65.3 µM.

In turn, `CN(C)CC(c1ccc(Cl)c(Cl)c1)N(C)S(=O)(=O)c1ccc(OC(F)(F)F)cc1` (stereo not drawn) [Compound 250, N-(1-(3,4-dichlorophenyl)-2-(dimethylamino)ethyl)-N-methyl-4-(trifluoromethoxy)benzenesulfonamide] showed a GI50 in assay [1] of 39.6 µM.

For the molecule `CN(C)CC(NS(=O)(=O)c1ccc(NC2CCCC2)cc1)c1ccc(Cl)c(Cl)c1` (stereo not drawn) [Compound 251, 4-(cyclopentylamino)-N-(1-(3,4-dichlorophenyl)-2-(dimethylamino)ethyl)benzenesulfonamide], the concentration for 50% growth inhibition (GI50) in assay [1] amounted to 22.4 µM.

In the case of `CN(C)CC(NS(=O)(=O)c1ccc(NC2CCC2)cc1)c1ccc(Cl)c(Cl)c1` (stereo not drawn) [Compound 252, 4-(cyclobutylamino)-N-(1-(3,4-dichlorophenyl)-2-(dimethylamino)ethyl)benzenesulfonamide], the 50% growth inhibitory concentration (GI50) in assay [1] is 22.8 µM.

In the case of `O=S(=O)(NCC1(c2ccc(Cl)c(Cl)c2)CCNC1)c1ccc(OC(F)(F)F)cc1` (stereo not drawn) [Compound 253, N-((3-(3,4-dichlorophenyl)pyrrolidin-3-yl)methyl)-4-(trifluoromethoxy)benzenesulfonamide], the GI50 in assay [1] turned out to be 10.7 µM.

In assay [1], `CC(CN(C)C)NS(=O)(=O)c1ccc(OC(F)(F)F)c([N+](=O)[O-])c1` (stereo not drawn) [Compound 254, N-(1-(dimethylamino)propan-2-yl)-3-nitro-4-(trifluoromethoxy)benzenesulfonamide] yielded a GI50 of 1.92 µM.

Take `CN(C)C(=O)C(NS(=O)(=O)c1ccc(OC(F)(F)F)cc1)c1ccc(Cl)c(Cl)c1` (stereo not drawn) [Compound 255, 2-(3,4-dichlorophenyl)-N,N-dimethyl-2-((4-(trifluoromethoxy)phenyl)sulfonamido)acetamide]: the GI50 in assay [1] worked out at 38.5 µM.

Regarding `COc1ccc(CNCC(NS(=O)(=O)c2ccc(OC(F)(F)F)cc2)c2ccc(Cl)c(Cl)c2)cc1` (stereo not drawn) [Compound 256, N-(1-(3,4-dichlorophenyl)-2-((4-methoxybenzyl)amino)ethyl)-4-(trifluoromethoxy)benzenesulfonamide], in assay [1], the GI50 is 34 µM.

Molecule `O=S(=O)(NC(CN1CCNCC1)c1ccc(Cl)cc1)c1ccc(OC(F)(F)F)cc1` (stereo not drawn) [Compound 257, N-(1-(4-chlorophenyl)-2-(piperazin-1-yl)ethyl)-4-(trifluoromethoxy)benzenesulfonamide] gave a GI50 in assay [1] of 11.6 µM.

`O=S(=O)(NC(CN1CCNCC1)c1ccc(Cl)c(F)c1)c1ccc(OC(F)(F)F)cc1` (stereo not drawn) [Compound 258, N-(1-(4-chloro-3-fluorophenyl)-2-(piperazin-1-yl)ethyl)-4-(trifluoromethoxy)benzenesulfonamide]: the GI50 in assay [1] was found to be 11.3 µM.

In turn, `O=S(=O)(NC(CN1CCNCC1)c1ccc(Cl)cc1)c1ccc(OC(F)(F)F)nc1` (stereo not drawn) [Compound 259, N-(1-(4-chlorophenyl)-2-(piperazin-1-yl)ethyl)-6-(trifluoromethoxy)pyridine-3-sulfonamide] yielded a GI50 in assay [1] of 48.8 µM.

For the molecule `O=S(=O)(NCC1(c2ccccc2)CCNCC1)c1ccc(OC(F)(F)F)cc1` [Compound 260, N-((4-phenylpiperidin-4-yl)methyl)-4-(trifluoromethoxy)benzenesulfonamide], the GI50 in assay [1] is 33.6 µM.

Consider `O=S(=O)(NCC1(c2cccc(C(F)(F)F)c2)CCCC1)c1ccc(OC(F)(F)F)cc1` [Compound 262, 4-(trifluoromethoxy)-N-((1-(3-(trifluoromethyl)phenyl)cyclopentyl)methyl)benzenesulfonamide], for which, in assay [1], the GI50 amounted to 63.1 µM. Compared with the last molecule, the GI50 is about 1.9-fold higher.

`O=S(=O)(NCC1(c2ccccc2)CCCN1)c1ccc(OC(F)(F)F)cc1` (stereo not drawn) [Compound 263, N-((2-phenylpyrrolidin-2-yl)methyl)-4-(trifluoromethoxy)benzenesulfonamide] had a GI50 in assay [2] of 75.7 µM.

In the case of `O=S(=O)(NC(CN1CCNCC1)c1ccc(F)cc1)c1ccc(OC(F)(F)F)cc1` (stereo not drawn) [Compound 264, N-(1-(4-fluorophenyl)-2-(piperazin-1-yl)ethyl)-4-(trifluoromethoxy)benzenesulfonamide], the 50% growth inhibitory concentration (GI50) in assay [1] was found to be 43.1 µM. In other words, the double-digit micromolar range.

In assay [1], `O=S(=O)(NC[C@H](c1ccc(F)cc1)N1CCNCC1)c1ccc(OC(F)(F)F)cc1` [Compound 265, (S)—N-(2-(4-fluorophenyl)-2-(piperazin-1-yl)ethyl)-4-(trifluoromethoxy)benzenesulfonamide] registered a GI50 of 40.3 µM. The GI50 values of the last two molecules are within 1.5-fold of each other.

In turn, `CN(C)CC(NS(=O)(=O)c1ccc(C(F)(F)F)c([N+](=O)[O-])c1)c1ccc(Cl)c(Cl)c1` (stereo not drawn) [Compound 266, N-(1-(3,4-dichlorophenyl)-2-(dimethylamino)ethyl)-3-nitro-4-(trifluoromethyl)benzenesulfonamide] came in with a GI50 in assay [1] of 41.9 µM.

In assay [1], `CCCOc1ccc(S(=O)(=O)NC(CN(C)C)c2ccc(Cl)c(Cl)c2)cc1` (stereo not drawn) [Compound 267, N-(1-(3,4-dichlorophenyl)-2-(dimethylamino)ethyl)-4-propoxybenzenesulfonamide] yielded a GI50 of 23.8 µM.

As for `CN(C)CC(NS(=O)(=O)c1ccc(NC2CCCCC2)cc1)c1ccc(Cl)c(Cl)c1` (stereo not drawn) [Compound 268, 4-(cyclohexylamino)-N-(1-(3,4-dichlorophenyl)-2-(dimethylamino)ethyl)benzenesulfonamide], the GI50 in assay [1] came to 15.5 µM.

Take `CN1CCN(CC(NS(=O)(=O)c2ccc(Oc3ccc(F)cc3)cc2)c2ccc(Cl)c(Cl)c2)CC1` (stereo not drawn) [Compound 269, N-(1-(3,4-dichlorophenyl)-2-(4-methylpiperazin-1-yl)ethyl)-4-(4-fluorophenoxy)benzenesulfonamide]: the GI50 in assay [1] worked out at 15 µM.

The values are drawn from patent publication US20240174603A1 (Rappta Therapeutics Oy, priority 2021, published 2024).
